Patent US11299501B2 (BRISTOL-MYERS SQUIBB COMPANY, priority 2017, dated 2022)

Legend:
Assay type in all cases: cell-based
[1] = target: T1, human TLR8 (Homo sapiens, UniProt Q9NR97); assay: TLR8 inhibition reporter assay (HEK-Blue SEAP); settings: cells overexpressing human TLR8, SEAP reporter, stimulated with R848 15.9 μM, 22 hour incubation
T1 construct: host or cells: HEK-Blue cells
T1 sequence (Q9NR97 27-1041): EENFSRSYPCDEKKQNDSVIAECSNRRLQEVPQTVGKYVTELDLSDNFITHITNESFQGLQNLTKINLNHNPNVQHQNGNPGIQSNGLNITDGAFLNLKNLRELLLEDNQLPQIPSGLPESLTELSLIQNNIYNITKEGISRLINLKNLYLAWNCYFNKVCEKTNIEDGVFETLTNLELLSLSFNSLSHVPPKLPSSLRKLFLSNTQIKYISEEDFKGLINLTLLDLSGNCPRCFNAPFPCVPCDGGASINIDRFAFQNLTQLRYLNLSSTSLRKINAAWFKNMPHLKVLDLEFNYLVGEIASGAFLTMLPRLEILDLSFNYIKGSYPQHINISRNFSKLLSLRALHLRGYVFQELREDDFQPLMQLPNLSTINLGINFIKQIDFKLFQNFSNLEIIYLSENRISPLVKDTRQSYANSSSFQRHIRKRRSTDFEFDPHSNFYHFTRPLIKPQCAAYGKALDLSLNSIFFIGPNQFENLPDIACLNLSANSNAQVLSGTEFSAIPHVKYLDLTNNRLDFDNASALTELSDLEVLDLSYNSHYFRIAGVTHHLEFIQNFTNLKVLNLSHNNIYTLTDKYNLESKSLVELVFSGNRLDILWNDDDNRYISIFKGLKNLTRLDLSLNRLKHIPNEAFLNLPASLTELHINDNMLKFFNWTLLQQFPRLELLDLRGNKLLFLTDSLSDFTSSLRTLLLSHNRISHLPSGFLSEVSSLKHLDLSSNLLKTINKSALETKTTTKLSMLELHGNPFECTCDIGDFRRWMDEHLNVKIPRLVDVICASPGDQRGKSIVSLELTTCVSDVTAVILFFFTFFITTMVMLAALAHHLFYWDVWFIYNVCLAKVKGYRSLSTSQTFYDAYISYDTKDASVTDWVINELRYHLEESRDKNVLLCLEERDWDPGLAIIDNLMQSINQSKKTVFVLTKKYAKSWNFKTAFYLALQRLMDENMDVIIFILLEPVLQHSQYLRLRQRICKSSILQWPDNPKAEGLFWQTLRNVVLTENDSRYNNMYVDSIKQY
Method: (§1) TLR7/8/9 Inhibition Reporter Assays
(§2) […] (Invivogen) overexpressing human TLR7, TLR8 or TLR9 receptors were used for screening inhibitors of these receptors using an inducible SEAP (secreted embryonic alkaline phosphatase) reporter gene under the control of the IFN-β minimal promoter fused to five NF-κB and AP-1-binding sites. Briefly, cells are seeded into Greiner 384 well plates (15000 cells per well for TLR7, 20,000 for TLR8 and 25,000 for TLR9) and then treated with test compounds in DMSO to yield a final dose response concentration range of 0.05 nM-50 μM. After a 30 minute compound pre-treatment at room temperature, the cells are then stimulated with a TLR7 ligand (gardiquimod at a final concentration of 7.5 μM). TLR8 ligand (R848 at a final concentration of 15.9 μM) or TLR9 ligand (ODN2006 at a final concentration of 5 nM) to activate NF-κB and AP-1 which induce the production of SEAP. After a 22 hour incubation at 37° C., 5% CO2, SEAP levels are determined with the addition of HEK-Blue™ Detection reagent (Invivogen), a cell culture medium that allows for detection of SEAP, according to manufacturer's specifications. The percent inhibition is determined as the % reduction in the HEK-Blue signal present in wells treated with agonist plus DMSO alone compared to wells treated with a known inhibitor.

[2] = target: T2, human TLR9 (Homo sapiens, UniProt Q9NR96); assay: TLR9 inhibition reporter assay (HEK-Blue SEAP); settings: cells overexpressing human TLR9, SEAP reporter, stimulated with ODN2006 5 nM, 22 hour incubation
T2 construct: host or cells: HEK-Blue cells
T2 sequence (Q9NR96 26-1032): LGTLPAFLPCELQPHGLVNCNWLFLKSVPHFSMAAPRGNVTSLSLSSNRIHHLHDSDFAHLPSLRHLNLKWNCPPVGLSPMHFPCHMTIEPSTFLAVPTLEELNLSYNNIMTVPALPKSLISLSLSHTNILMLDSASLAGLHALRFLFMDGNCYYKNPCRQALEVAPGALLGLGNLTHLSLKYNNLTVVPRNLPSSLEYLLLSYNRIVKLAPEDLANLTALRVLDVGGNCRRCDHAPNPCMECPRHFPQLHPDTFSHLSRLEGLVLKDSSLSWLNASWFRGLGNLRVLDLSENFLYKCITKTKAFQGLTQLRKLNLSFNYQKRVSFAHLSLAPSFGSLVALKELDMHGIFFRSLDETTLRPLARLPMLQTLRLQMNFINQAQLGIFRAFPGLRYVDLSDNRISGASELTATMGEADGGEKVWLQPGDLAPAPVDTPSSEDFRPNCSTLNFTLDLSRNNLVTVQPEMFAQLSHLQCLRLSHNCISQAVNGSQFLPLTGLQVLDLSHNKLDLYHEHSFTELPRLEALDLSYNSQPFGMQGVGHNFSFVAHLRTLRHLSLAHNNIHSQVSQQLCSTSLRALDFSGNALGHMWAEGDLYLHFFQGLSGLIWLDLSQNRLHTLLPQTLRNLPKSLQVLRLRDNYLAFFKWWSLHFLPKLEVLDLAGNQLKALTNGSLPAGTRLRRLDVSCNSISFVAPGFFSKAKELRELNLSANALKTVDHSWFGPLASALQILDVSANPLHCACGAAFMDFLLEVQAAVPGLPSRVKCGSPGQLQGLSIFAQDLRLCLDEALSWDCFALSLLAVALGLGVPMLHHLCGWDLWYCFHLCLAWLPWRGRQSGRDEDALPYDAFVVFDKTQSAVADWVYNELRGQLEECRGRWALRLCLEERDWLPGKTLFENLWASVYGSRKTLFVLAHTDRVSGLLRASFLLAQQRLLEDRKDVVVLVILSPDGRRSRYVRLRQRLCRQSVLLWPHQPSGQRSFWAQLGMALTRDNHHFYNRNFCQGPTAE
Method: as §1, §2

[3] = target: T3, human TLR7 (Homo sapiens, UniProt Q9NYK1); assay: TLR7 inhibition reporter assay (HEK-Blue SEAP); settings: cells overexpressing human TLR7, SEAP reporter, stimulated with gardiquimod 7.5 μM, 22 hour incubation
T3 construct: host or cells: HEK-Blue cells
T3 sequence (Q9NYK1 27-1049): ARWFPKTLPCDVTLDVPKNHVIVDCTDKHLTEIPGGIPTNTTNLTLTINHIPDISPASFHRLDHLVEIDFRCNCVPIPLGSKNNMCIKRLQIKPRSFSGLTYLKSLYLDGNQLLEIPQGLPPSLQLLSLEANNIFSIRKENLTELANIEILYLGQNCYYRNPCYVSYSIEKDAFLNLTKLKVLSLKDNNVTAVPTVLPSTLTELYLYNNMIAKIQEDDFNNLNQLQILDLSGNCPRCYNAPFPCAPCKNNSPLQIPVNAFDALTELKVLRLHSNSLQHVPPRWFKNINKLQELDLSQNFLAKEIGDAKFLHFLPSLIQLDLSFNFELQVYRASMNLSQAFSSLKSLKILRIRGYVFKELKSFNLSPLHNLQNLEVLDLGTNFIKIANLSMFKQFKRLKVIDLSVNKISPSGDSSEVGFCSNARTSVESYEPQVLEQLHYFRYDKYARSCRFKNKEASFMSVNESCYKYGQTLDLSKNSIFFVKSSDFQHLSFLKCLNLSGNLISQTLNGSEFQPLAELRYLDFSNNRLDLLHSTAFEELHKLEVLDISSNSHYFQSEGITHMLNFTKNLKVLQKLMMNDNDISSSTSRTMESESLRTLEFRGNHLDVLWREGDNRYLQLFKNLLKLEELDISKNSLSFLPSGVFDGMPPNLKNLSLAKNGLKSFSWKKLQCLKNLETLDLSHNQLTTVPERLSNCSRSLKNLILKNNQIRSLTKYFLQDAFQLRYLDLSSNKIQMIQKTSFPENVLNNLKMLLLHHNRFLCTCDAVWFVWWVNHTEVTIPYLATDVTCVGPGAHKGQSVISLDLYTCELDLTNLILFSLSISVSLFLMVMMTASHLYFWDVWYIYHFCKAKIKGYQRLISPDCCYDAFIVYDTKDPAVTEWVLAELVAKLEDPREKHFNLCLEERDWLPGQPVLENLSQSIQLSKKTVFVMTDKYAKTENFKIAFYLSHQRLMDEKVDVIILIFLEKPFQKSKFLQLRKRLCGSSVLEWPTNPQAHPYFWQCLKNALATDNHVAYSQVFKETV
Method: as §1, §2

Structure (SMILES) | IC50 [1] [nM] | IC50 [2] [nM] | IC50 [3] [nM]
CCc1c(-c2ccc(OC)c(OC)c2)[nH]c2ncc(C3CCN(C4CCN(C(C)C)CC4)CC3)nc12 [Example 5, 6-(3,4-ditnethoxyphenyl)-7-ethyl-2-(1′-isopropyl-[1,4′-bipiperidin]-4-yl)-5H-pyrrolo[2,3-b]pyrazine] | 100 to 1000 | 100 to 1000 | < 100
CCc1c(-c2ccc(OC)c(OC)c2)[nH]c2cnc(-c3nnc([C@@H]4CCCNC4)o3)nc12 [Example 43, (R)-2-(6-(3,4-dimethoxyphenyl)-7-ethyl-5H-pyrrolo[3,2-d]pyrimidin-2-yl)-5-(piperidin-3-yl)-1,3,4-oxadiazole] | 100 to 1000 | 1000 to 50000 | 1000 to 50000
CCc1c(-c2ccc(OC)c(OC)c2)[nH]c2cnc(-c3nnc(CCNC)o3)nc12 [Example 38, 2-(5-(6-(3,4-dimethoxyphenyl)-7-ethyl-5H-pyrrolo[3,2-d]pyrimidin-2-yl)-1,3,4-oxadiazol-2-yl)-N-methylethan-1-amine] | 100 to 1000 | 1000 to 50000 | 1000 to 50000
COc1cc(-c2[nH]c3cnc(C4CCN(CC#N)CC4)nc3c2C(C)C)cn2ncnc12 [Example 59] | < 100 | 100 to 1000 | < 100
CCc1c(-c2ccc(OC)c(OC)c2)[nH]c2cnc(-c3nnc([C@H]4CCNC4)o3)nc12 [Example 44, (S)-2-(6-(3,4-dimethoxyphenyl)-7-ethyl-5H-pyrrolo[3,2-d]pyrimidin-2-yl)-5-(pyrrolidin-3-yl)-1,3,4-oxadiazole] | 1000 to 50000 | 1000 to 50000 | 1000 to 50000
CCc1c(-c2ccc(OC)c(OC)c2)[nH]c2cnc(C(=O)NC3CCN(C(C)C)CC3)nc12 [Example 56, 6-(3,4-diunethoxyphenyl)-7-ethyl-N-(1-isopropylpiperidin-4-yl)-5H-pyrrolo[3,2-d]pyrimidine-2-carboxamide] | 1000 to 50000 | > 50000 | 1000 to 50000
CCc1c(-c2ccc(OC)c(OC)c2)[nH]c2ncc(C3CCN(C(=O)CN(C)C)CC3)nc12 [Example 4, 1-(4-(6-(3,4-dimethoxypbenyl)-7-ethyl-5H-pyrrolo[2,3-b]pyrazin-2-yl)piperidin-1-yl)-2-(dimethylamino)ethanone] | 100 to 1000 | 1000 to 50000 | 100 to 1000
CCc1c(-c2ccc(OC)c(OC)c2)[nH]c2cnc(-c3nnc(C[C@@H]4CCCN4)o3)nc12 [Example 45, (S)-2-(6-(3,4-dimethoxyphenyl)-7-ethyl-5H-pyrroIo[3,2-d]pyrimidin-2-yl)-5-(pyrrolidin-2-ylmethyl)-1,3,4-oxadiazole] | 1000 to 50000 | 1000 to 50000 | 1000 to 50000
CCc1c(-c2ccc(OC)c(OC)c2)[nH]c2cnc(C3CCN(CC(=O)NC)CC3)nc12 [Example 50] | 100 to 1000 | 1000 to 50000 | 100 to 1000
CCc1c(-c2ccc(OC)c(OC)c2)[nH]c2cnc(C3CCN(Cc4nc(C)c[nH]4)CC3)nc12 [Example 52, 6-(3,4-dimethoxyphenyl)-7-ethyl-2-(1-((4-methy 1H-imidazol-2-yl)methyl)piperidin-4-yl)-5H-pyrrolo[3,2-d]pyrimidine] | < 100 | 1000 to 50000 | 100 to 1000
CCc1c(-c2ccc(OC)c(OC)c2)[nH]c2cnc(C3CCN(C4CCN(C(C)C)CC4)CC3)nc12 [Example 26, 6-(3,4-dimethoxyphenyl)-7-ethyl-2-(1′-isopropyl-[1,4′-bipiperidin]-4-yl)-5H-pyrrolo[3,2-d]pyrimidine] | < 100 | 100 to 1000 | < 100
CCc1c(-c2ccc(OC)c(OC)c2)[nH]c2cnc(-c3nnc([C@@H]4CCNC4)o3)nc12 [Example 41, (R)-2-(6-(3,4-dimethoxyphenyl)-7-ethyl-5H-pyrrolo[3,2-d]pyrimidin-2-yl)-5-(pyrrolidin-3-yl)-1,3,4-oxadiazole] | 1000 to 50000 | 1000 to 50000 | 1000 to 50000
Cc1cc(-c2[nH]c3cnc(C4CCN(C5CCOC5)CC4)nc3c2C(C)C)cn(C)c1=O (stereo not drawn) [Example 12, 5-(7-isopropyl-2-(1-(tetrahydrofuran-3-yl)piperidin-4-yl)-5H-pyrrolo[3,2-d]pyrimidin-6-yl)-1,3-dirnethylpyridin-2(1H)-one] | < 100 | 1000 to 50000 | < 100
